# In article PMC9128828 (Nature medicine, 2021):
# How the values were obtained:
# [1] = previous study; cited from earlier work
# [2] = Safety; format: in vivo, human; details: for All-cause adverse event: Anemia / All-cause adverse event: Any / All-cause adverse event: Arthralgia / All-cause adverse event: Back pain / All-cause adverse event: Blood creatinine increased / All-cause adverse event: Constipation / All-cause adverse event: Cough / All-cause adverse event: Dehydration / All-cause adverse event: Diarrhea / All-cause adverse event: Dizziness / All-cause adverse event: Dyspnea / All-cause adverse event: Edema peripheral / All-cause adverse event: Fatigue / All-cause adverse event: Headache / All-cause adverse event: Hyperkalemia / All-cause adverse event: Hypoxia / All-cause adverse event: Nausea / All-cause adverse event: Vomiting: ccRCC cohort (n = 55)
# [3] = tested on: previously treated advanced ccRCC; experiment: Anti-tumor activity per RECIST v1.1, ccRCC cohort; format: in vivo, human
# [4] = Safety and dose-limiting toxicities, dose-escalation cohort; format: in vivo, human
# [5] = Plasma pharmacokinetics of belzutifan, phase 1 study; format: in vivo, human
# [6] = tested on: mouse xenograft models; details: cited from earlier work
# [7] = tested on: advanced solid tumors; experiment: Anti-tumor activity per RECIST v1.1, dose-escalation cohort; format: in vivo, human
# [8] = tested on: erythropoietin; experiment: Pharmacodynamics: plasma erythropoietin, phase 1 study; format: in vivo, human; details: all dose levels
# [9] = ccRCC cohort n = 55, all grade 3
# [10] = RECIST v1.1, ccRCC cohort, n = 55
smiles,measurement,setting,value
"CS(=O)(=O)c1ccc(Oc2cc(F)cc(C#N)c2)c2c1[C@H](O)[C@H](F)[C@@H]2F [belzutifan, 3-[(1 S,2 S,3 R)-2,3-difluoro-1-hydroxy-7-methylsulfonylindan-4-yl]oxy-5-fluorobenzo nitrile]","Exposure to belzutifan, dependence on dose",[1],increased with doses up to 120 mg once daily
same,Patients with anemia who received exogenous erythropoietin,[2]; 28 of 42 patients with anemia,67%
same,All-cause adverse event: Anemia,[2]; All grades or 2,42 (76) no. (%)
same,All-cause adverse event: Any,[2]; All grades or 2,55 (100) no. (%)
same,All-cause adverse event: Arthralgia,[2]; All grades or 2,14 (25) no. (%)
same,All-cause adverse event: Back pain,[2]; All grades or 2,12 (22) no. (%)
same,All-cause adverse event: Blood creatinine increased,[2]; All grades or 2,14 (25) no. (%)
same,All-cause adverse event: Constipation,[2]; All grades or 2,12 (22) no. (%)
same,All-cause adverse event: Cough,[2]; All grades or 2,17 (31) no. (%)
same,All-cause adverse event: Dehydration,[2]; All grades or 2,11 (20) no. (%)
same,All-cause adverse event: Diarrhea,[2]; All grades or 2,12 (22) no. (%)
same,All-cause adverse event: Dizziness,[2]; All grades or 2,13 (24) no. (%)
same,All-cause adverse event: Dyspnea,[2]; All grades or 2,27 (49) no. (%)
same,All-cause adverse event: Edema peripheral,[2]; All grades or 2,15 (27) no. (%)
same,All-cause adverse event: Fatigue,[2]; All grades or 2,39 (71) no. (%)
same,All-cause adverse event: Headache,[2]; All grades or 2,14 (25) no. (%)
same,All-cause adverse event: Hyperkalemia,[2]; All grades or 2,12 (22) no. (%)
same,All-cause adverse event: Hypoxia,[2]; All grades or 2,17 (31) no. (%)
same,All-cause adverse event: Nausea,[2]; All grades or 2,20 (36) no. (%)
same,All-cause adverse event: Vomiting,[2]; All grades or 2,16 (29) no. (%)
same,All-cause adverse event: Anemia,[2]; Grade 1,27 (49) no. (%)
same,All-cause adverse event: Any,[2]; Grade 1,16 (29) no. (%)
same,All-cause adverse event: Arthralgia,[2]; Grade 1,14 (25) no. (%)
same,All-cause adverse event: Back pain,[2]; Grade 1,11 (20) no. (%)
same,All-cause adverse event: Blood creatinine increased,[2]; Grade 1,13 (24) no. (%)
same,All-cause adverse event: Constipation,[2]; Grade 1,12 (22) no. (%)
same,All-cause adverse event: Cough,[2]; Grade 1,17 (31) no. (%)
same,All-cause adverse event: Dehydration,[2]; Grade 1,10 (18) no. (%)
same,All-cause adverse event: Diarrhea,[2]; Grade 1,12 (22) no. (%)
same,All-cause adverse event: Dizziness,[2]; Grade 1,13 (24) no. (%)
same,All-cause adverse event: Dyspnea,[2]; Grade 1,24 (44) no. (%)
same,All-cause adverse event: Edema peripheral,[2]; Grade 1,15 (27) no. (%)
same,All-cause adverse event: Fatigue,[2]; Grade 1,36 (65) no. (%)
same,All-cause adverse event: Headache,[2]; Grade 1,13 (24) no. (%)
same,All-cause adverse event: Hyperkalemia,[2]; Grade 1,11 (20) no. (%)
same,All-cause adverse event: Hypoxia,[2]; Grade 1,8 (15) no. (%)
same,All-cause adverse event: Nausea,[2]; Grade 1,19 (35) no. (%)
same,All-cause adverse event: Vomiting,[2]; Grade 1,16 (29) no. (%)
same,All-cause adverse event: Anemia,[2]; Grade 3,15 (27) no. (%)
same,All-cause adverse event: Any,[2]; Grade 3,33 (60) no. (%)
same,All-cause adverse event: Arthralgia,[2]; Grade 3,0 (0) no. (%)
same,All-cause adverse event: Back pain,[2]; Grade 3,1 (2) no. (%)
same,All-cause adverse event: Blood creatinine increased,[2]; Grade 3,1 (2) no. (%)
same,All-cause adverse event: Constipation,[2]; Grade 3,0 (0) no. (%)
same,All-cause adverse event: Cough,[2]; Grade 3,0 (0) no. (%)
same,All-cause adverse event: Dehydration,[2]; Grade 3,1 (2) no. (%)
same,All-cause adverse event: Diarrhea,[2]; Grade 3,0 (0) no. (%)
same,All-cause adverse event: Dizziness,[2]; Grade 3,0 (0) no. (%)
same,All-cause adverse event: Dyspnea,[2]; Grade 3,3 (5) no. (%)
same,All-cause adverse event: Edema peripheral,[2]; Grade 3,0 (0) no. (%)
same,All-cause adverse event: Fatigue,[2]; Grade 3,3 (5) no. (%)
same,All-cause adverse event: Headache,[2]; Grade 3,1 (2) no. (%)
same,All-cause adverse event: Hyperkalemia,[2]; Grade 3,1 (2) no. (%)
same,All-cause adverse event: Hypoxia,[2]; Grade 3,9 (16) no. (%)
same,All-cause adverse event: Nausea,[2]; Grade 3,1 (2) no. (%)
same,All-cause adverse event: Vomiting,[2]; Grade 3,0 (0) no. (%)
same,All-cause adverse event: Anemia,[2]; Grade 4,0 (0) no. (%)
same,All-cause adverse event: Any,[2]; Grade 4,2 (4) no. (%)
same,All-cause adverse event: Arthralgia,[2]; Grade 4,0 (0) no. (%)
same,All-cause adverse event: Back pain,[2]; Grade 4,0 (0) no. (%)
same,All-cause adverse event: Blood creatinine increased,[2]; Grade 4,0 (0) no. (%)
same,All-cause adverse event: Constipation,[2]; Grade 4,0 (0) no. (%)
same,All-cause adverse event: Cough,[2]; Grade 4,0 (0) no. (%)
same,All-cause adverse event: Dehydration,[2]; Grade 4,0 (0) no. (%)
same,All-cause adverse event: Diarrhea,[2]; Grade 4,0 (0) no. (%)
same,All-cause adverse event: Dizziness,[2]; Grade 4,0 (0) no. (%)
same,All-cause adverse event: Dyspnea,[2]; Grade 4,0 (0) no. (%)
same,All-cause adverse event: Edema peripheral,[2]; Grade 4,0 (0) no. (%)
same,All-cause adverse event: Fatigue,[2]; Grade 4,0 (0) no. (%)
same,All-cause adverse event: Headache,[2]; Grade 4,0 (0) no. (%)
same,All-cause adverse event: Hyperkalemia,[2]; Grade 4,0 (0) no. (%)
same,All-cause adverse event: Hypoxia,[2]; Grade 4,0 (0) no. (%)
same,All-cause adverse event: Nausea,[2]; Grade 4,0 (0) no. (%)
same,All-cause adverse event: Vomiting,[2]; Grade 4,0 (0) no. (%)
same,Patients requiring dose reductions or discontinuations for anemia,[2]; ccRCC cohort,No patients
same,Patients with at least one adverse event,[2]; ccRCC cohort,All patients
same,Treatment-related grade 4 or 5 events,[2]; ccRCC cohort,No treatment-related grade 4 or 5 events occurred
same,Treatment-related adverse event: anemia,[2]; ccRCC cohort n = 55,71%
same,Treatment-related adverse event: hypoxia,[2]; ccRCC cohort n = 55,18%
same,Treatment-related adverse event: nausea,[2]; ccRCC cohort n = 55,15%
same,Treatment-related adverse event: peripheral edema,[2]; ccRCC cohort n = 55,16%
same,Grade ≥3 treatment-emergent adverse event: anemia,[2]; [9],27%
same,Grade ≥3 treatment-emergent adverse event: hypoxia,[2]; [9],16%
same,Patients requiring dose reductions because of treatment-related adverse events,"[2]; ccRCC cohort, five patients",9%
same,Patients who discontinued after treatment-related adverse events,"[2]; ccRCC cohort, two patients, both hypoxia",4%
same,Patients with grade 5 adverse events,"[2]; ccRCC cohort, disease progression, malignant neoplasm progression, acute kidney injury, cardiac arrest",four patients
same,Patients with target lesion size reduced from baseline,[3]; 35 of 52 patients with baseline and post-baseline imaging,67%
same,Median progression-free survival,[3]; IMDC favorable risk,not reached
same,Complete response,[3]; [10],0 (0) no. (%)
same,Non-evaluable,[3]; [10],3 (5) no. (%)
same,Partial response,[3]; [10],14 (25) no. (%)
same,Progressive disease,[3]; [10],8 (15) no. (%)
same,Stable disease,[3]; [10],30 (54) no. (%)
same,Median duration of response,[3]; ccRCC cohort,not reached
same,Disease control rate,"[3]; ccRCC cohort n = 55, 120 mg once daily",80%
same,Objective response rate,"[3]; ccRCC cohort n = 55, 120 mg once daily, all partial responses",25%
same,Median progression-free survival,"[3]; ccRCC cohort, 95% CI 7.3–not reached, Kaplan–Meier",14.5 months
same,Responders with duration of response ≥6 months,[3]; ten of 14 responders,71%
same,Patients with treatment-related dose-limiting toxicity,"[4]; 120 mg twice daily, one of six patients, grade 3 hypoxia",17%
same,Patients with treatment-related dose-limiting toxicity,"[4]; 240 mg orally, one of seven patients, grade 4 thrombocytopenia",14%
same,Maximum tolerated dose,[4]; dose-escalation cohort,not reached
same,Dose-limiting toxicities,[4]; doses up to 160 mg once daily,no dose-limiting toxicities
same,"Dose-normalized area under the concentration curve from time 0 to the end of the dosing period, dependence on dose",[5]; 20–240 mg once daily,increased with dose from 20 to 120 mg but decreased from 120 to 240 mg once daily
same,Mean accumulation ratio,[5]; 120-mg twice-daily dosing,2.4
same,Increase in maximum concentration,[5]; 240-mg once-daily cohort compared to 120-mg once-daily expansion cohort,38%
same,Median time to maximum observed plasma concentration,"[5]; across dose levels, oral",1.0 to 2.0 h
same,half-life,"[5]; human, in vivo, po",11.2 to 21.5 h
same,Mean accumulation ratio,[5]; once-daily dosing,1.3–1.5
same,Potency relative to MK-3795,[6]; mouse xenograft models,approximately ten-fold more potent than MK-3795
same,Responses (all partial),"[7]; 120 mg once daily, one of six patients",17%
same,Responses (all partial),"[7]; 120 mg twice daily, one of six patients",17%
same,Responses (all partial),"[7]; 160 mg once daily, two of six patients",33%
same,Median duration of response,"[7]; any dose cohort, patients who had a response",not reached
same,Change in plasma erythropoietin,[8],reductions
"CS(=O)(=O)c1ccc(Oc2cc(F)cc(C#N)c2)c2c1[C@H](O)C(F)(F)C2 [MK-3795, reference compound]",Tumor regression,[6]; xenograft models,significant tumor regression
